Reference: patent US20030224937A1, “Selective herbicidal composition” (priority 1994, published 2003)

System: Maize
Experiment: Preemergence phytotoxic action of the herbicide of formula I and of mixtures of herbicide and safener of formula II on maize
Type: in vivo
Settings: no safener, 22 days
Description: Preemergence Phytoxic Action of the Herbicide of Formula I and of the Mixtures of Herbicide and Safener of Formula II on Maize
Maize is sown in standard soil in plastic pots. Immediately after sowing, the pots are sprayed with an aqueous suspension of the test substances (500 l of water/ha) prepared from one of the above formulations 1 to 8. The concentration of herbicide of formula I is 4000, 3000 and 2000 g/ha. The safener No. 1.006 is applied in a ratio to the herbicide of 1:18, 1:24 and 1:30. The test plants are afterwards cultivated in a greenhouse under optimum conditions. The phytotoxic action of the herbicide on the maize (percentage phytotoxicity) is evaluated after a test duration of 22 days.

## CCc1cccc(C)c1N(C(=O)CCl)[C@@H](C)COC [formula I, aRS,1′S(−)N-(1′-methyl-2′-methoxyethyl)-N-chloracetyl-2-ethyl-6-methylaniline]
Herbicide of formula I 4000 g/ha, greenhouse
  % Phytotoxicity: 65%
Series b), herbicide of formula I 2000 g/ha (so in the source)
  % Phytotoxicity: 55%
Series c), herbicide of formula I 2000 g/ha
  % Phytotoxicity: 25%
